# Measured values: patent publication US7026469B2, “Compositions and methods of double-targeting virus infections and cancer cells” (Wake Forest University School of Medicine, priority 2000, dated 2006)
# Values joined by “and” are separate entries in the source; they are usually repeats but may differ in a detail not shown here. Equal entries are not always repeated. Where two headings read alike, the source gives them in different places.
# Assays:
# [1] = Oral administration of phospholipid-AZT conjugate in rodents (distribution, half-life); set-up: species or system rodents (mice); conditions: mouse, in vivo; in rodents; units given within the value; read-out: half-life of AZT alone
# [2] = Cytotoxicity (TC50) of the compounds tested for anti-HIV-1 activity; format: cell-based, human; conditions: human, CEM-SS cells
# Description: (§1) The inhibitory effects of PC lipids, non-PC lipid-AZT conjugates, and double-targeting PC lipid-AZT conjugate compounds of the invention on replication of HIV-1 virus in cells was examined using the plaque assay procedure described in Kucera et al. (1990, AIDS Research and Human Retroviruses, 6:491). CEM-SS cells were seeded at 50,000 cells per milliliter in RPMI growth medium as a monolayer in 96-well dishes, inoculated with 50 to 100 plaque forming units of HIV-1 and overlaid with serial dilutions of either PC lipid, non-PC lipid-AZT conjugate, or PC-lipid-AZT conjugate in RPMI-1640 growth medium supplemented with 10% fetal bovine serum. The structures of the tested compounds are described in Table 1. AZT and PC lipids were used as positive controls. […] The cytotoxicity of PC lipids, non-PC lipid-AZT conjugates and double targeting PC lipid-AZT conjugates was assessed using the procedure described in Kucera et al. (1990, AIDS Res. And Human Retrovir., 6:496, and 1998, Antiviral Chemistry and Chemotherapy, 9:160). [drawing 16]
# [3] = tested on: Friend leukemia virus; conditions: INK-11 compared with AZT alone; cited from earlier work
# [4] = tested on: AZT-resistant clinical isolates of HIV-1; assay: microbe, parasite or virus in culture; format: cell-based; conditions: for EC50: mean of 2 to 4 independent tests
# Description: as §1
# Evaluation of the clinical isolates to the compounds was performed using the plaque assay procedure described herein in Example 1. The matched pairs of clinical isolates were obtained through the AIDS Research and Reference Reagent Program, NIH, Bethesda, Md.
# [5] = tested on: HIV-1; assay: HIV-1 syncytial plaque assay in CEM-SS cells; format: cell-based
# Description: as §1
# In the plaque assay, HIV-1 syncytial plaques are seen as large, multicellular foci (10 to 25 nuclei/syncytium) that appear either brown and granular or clear. Because the number of HIV-1 syncytial plaques was correlated with reverse transcriptase (RT) and p24 core antigen activity in the HIV-1 infected cell overlay fluids, the syncytial plaque assay could be used to quantify the amount of infectious virus. Reverse transcriptase activity was assayed according to the procedure described by Poeisz et al. (1980, Proc. Natl. Acad. Sci. U.S.A. 77:7415). The activity of p24 core antigen induced by HIV-1 infection of CEM-SS cells was measured spectrophotometrically using the commercial Coulter enzyme immunoassay (EIA).
# [6] = tested on: HIV-1 persistently infected H9IIIB cells; assay: Induction of defective HIV-1 in persistently infected H9IIIB cells (RT activity after infecting fresh CEM-SS cells); format: cell-based; conditions: RT activity in CEM-SS overlay medium after 7 or 9 days; H9IIIB cells treated with 1.0 μM compound for 14 or 11 days
# Description: HIV-1 persistently infected H9IIIB cells were washed twice to remove extracellular HIV-1, resuspended in fresh growth medium with or without 1.0 μM of compound for a total of 14 days. During the treatment period, the cells were subcultured 1:3 three times a week. In addition, on days 3, 7 and 11, the cells were pelleted to remove extracellular HIV-1 before subculture in fresh growth medium with or without the compound. After 14 or 11 days of treatment, the virus was pelleted (100,000×g, 1 hr, 4 C.) from the overlay medium to remove free compound, resuspended in fresh medium without compound and assayed for RT activity. The virus suspension was normalized to 500,000 RT DPM and used to infect fresh CEM-SS cells. The infected CEM-SS cells were incubated for a total of 7 or 9 days, and the overlay medium was harvested and assayed for induction of RT activity. The % inhibition of RT activity was used as a measure of defective virus formation during the treatment period.
# [7] = Cytotoxicity in Vero cell monolayers (cell morphology); format: cell-based, monkey; conditions: monkey, Vero cell monolayers (monkey kidney cells), 48 hours at 37° C., lowest concentration changing morphology in at least 25% of the cells, read-out: Cytotoxicity (TC50)
# Description: To measure cytotoxicity of the compounds, the cell monolayers (described above) were treated with a serial concentration of test compound for 48 hours at 37° C. and visually examined after crystal violet staining by light microscopy for changes in cell morphology (cell rounding, shrinking, detachment) compared to an untreated control culture.
# [8] = tested on: herpes simplex virus type 2; assay: Herpes simplex virus type 2 plaque inhibition in Vero cells; format: cell-based; conditions: acyclovir in replicate tests; read-out: EC50 against herpes simplex virus type 2
# Description: Proof-of-concept of the antiviral activity of the double-targeting PC lipid-AZT conjugate compounds of the invention with respect to herpes simplex virus type 2 was evaluated and compared with that of PC lipid alone and with acyclovir (positive controls). Serial dilutions of PC lipid, PC lipid-AZT conjugate compound, or acyclovir were evaluated for inhibition of the formation of herpes simplex virus type 2 plaques in Vero cells and EC50 values were calculated from the results obtained. Briefly, the tests for anti-herpes simplex virus (HSV) activity and cytotoxicity of the compounds were performed by seeding 8×10^4 monkey kidney cells (Vero) per ml of D-MEM with 10% fetal bovine serum (FBS) in each well of a 12-well dish. The cultures were incubated at 37° C. to form a complete monolayer. To measure anti-HSV activity and effective concentration50 (EC50) each cell monolayer was infected with HSV diluted in PBS-A containing about 100 plaque forming units (PFU) per 0.1 ml. After virus attachment (1 hr., 37° C.) the infected monolayers were overlaid with E-MEM containing 2% FBS and 0.5% methyl cellulose with or without added serial concentrations of test compound. […] The EC50 values were calculated using a computer generated program.
SMILES,half-life [1] [min],CC50 [2] [µM],suppression against RT activity [3] [%],"EC50 ([4]; Human immunodeficiency virus 1, read-out: EC50 Pre-AZT G-762, pre-AZT isolate, patient code G-762) [µM]","EC50 ([4]; Human immunodeficiency virus 1, read-out: EC50 Pre-AZT H112-2, pre-AZT isolate, patient code H112-2) [µM]",Fold-Increase (G-762 to G-691) ([4]; post-AZT G-691 versus pre-AZT G-762),fold increase in AZT-resistance among HIV-1 clinical isolates ([4]; text summary over both isolate pairs),Differential Selectivity ([5]; DS = ratio of TC50 for cytotoxicity to EC50 for anti-HIV activity),"EC50 ([5]; Human immunodeficiency virus 1, CEM-SS, 120 h, read-out: Anti-HIV-1 Activity (EC50)) [µM]",DPM-Bkg [6],CC50 at 48 h [7] [µM],EC50 [8]
"Cc1cn([C@H]2C[C@H](N=[N+]=[N-])[C@@H](CO)O2)c(=O)[nH]c1=O [AZT, 3′-azido-3′-deoxythymidine, reference compound]",30 to 60,3.7,98,0.001,0.002,165,"680- to 1,100 fold",411,0.009,5416 DPM and 6573 DPM,,
"Nc1nc2c(ncn2COCCO)c(=O)[nH]1 [Acyclovir, reference compound]",,,,,,,,,,,> 20,12.5 µM and 14.5 µM and 6.67 µM
